Results reported in a melting point compilation (Tetko et al.; mined from patent text by program, amines drawn as free bases though some values may be those of a salt).

melting point [°C] | Structure (SMILES)
116 to 118 | CCCCn1nc(CCc2cccs2)nc1Cc1ccc(-c2ccccc2-c2nnn[nH]2)nc1
95 | CCOC(=O)CCNCC(O)COc1cccc(C#N)c1 (stereo not drawn)
250 to 252 | NC(=O)c1sc2nccc(N3CCN(c4ccccc4)CC3)c2c1N
130 to 132 | CC(C)c1cc(C(O)(C(F)(F)F)C(F)(F)F)cc(C(C)C)c1NCC(=O)O
256 to 257 | Cc1cc(=O)n2c3c(cc(C(O)(C(F)(F)Cl)C(F)(F)Cl)cc13)CC2
69 to 70 | COc1ccccc1C=Cc1ccccc1
164 to 165 | N=C(Nc1ccc(CCCC(=O)Nc2ccccc2)cc1)N1CCCC1
146 to 148 | C=CCn1nc(OCC(=O)c2cccs2)c(-c2ccc(F)cc2)c1-c1ccc(S(C)(=O)=O)cc1
70 to 72 | CN1C(=O)C(c2ccc(OCCCCBr)cc2)Sc2cc(Cl)ccc21 (stereo not drawn)
102 to 104 | CC(C)=CCC/C(C)=C/CSc1nc2cc(Cl)ccc2[nH]1
91 to 93 | NCCNCC(O)COc1ccccc1C(N)=O (stereo not drawn)
78 | N#Cc1ccc(C(Cc2ccc(C(F)(F)F)cn2)Cn2cncn2)cc1 (stereo not drawn)
87 | CC1(C)CC(S(=O)C(F)c2c(F)cccc2F)=NO1 (stereo not drawn)
180 to 182 | CCOC(=O)CNc1ccc(C2=NNC(=O)NC2C)cc1 (stereo not drawn)
175 | COc1ccnc(CSc2nc3c(C(F)(F)F)cccc3[nH]2)c1C
213 to 216 | O=C1CCC2=C(c3ccccc3)c3ccccc3C2N1 (stereo not drawn)
152 | CN1CCC(=C2c3sccc3C=Cn3ccnc32)CC1
51.2 | CC1=Nc2ccc(F)c(F)c2OC1
208 to 209 | Cc1cccc2c1C(=O)N(C1(C(=O)Nc3ccc(Cl)cc3)CCCCC1)C2=O
170 to 172 | Cn1ccnc1C=NO
88 to 90 | COC(=O)N(N=Nc1cc(C(F)(F)F)ccc1C#N)c1cc(C(F)(F)F)ccc1C#N

melting point [°C] | Structure (SMILES)
258 to 261 | O=C(O)c1cccc(CNC2CC3CC2C2CCCC32)c1 (stereo not drawn)
60 to 62 | CC1(C)Cc2sc3c(c2C1)CCC3=O
231 to 232 | O=C1N(Cc2ccc(NC=NO)nc2)c2ccccc2C12COc1cc3c(cc12)OCCO3 (stereo not drawn)
156 to 158 | CC(C)n1nc(-c2sc(NC(=O)CNCc3cccnc3)nc2-c2ccccc2)ccc1=O
174 to 175 | CC(C)(O)c1cccc(-c2ccc3nc(-c4ccc(Cl)cc4)c(F)n3c2)c1
148 | CC(C)c1ccc(S(=O)(=O)n2c(CCCC(=O)O)cc3cc(Cl)ccc32)cc1
65 to 66 | CC(C)(C)OC(=O)C12CC3CC(C1)CC(C(=O)OC(C)(C)C)(C3)C2
206 | CCS(=O)(=O)Nc1cc(-n2ncc(N(C)C)c(Cl)c2=O)c(F)cc1C#N
211 to 212 | Cc1nc2c(OCc3c(Cl)ccc(N(C)C(=O)CNC=O)c3Cl)cccn2c1Br
235 | Clc1cccc(Nc2ncnc3[nH]nc(NCc4ccc(-c5cncs5)cc4)c23)c1
72 to 74 | CCOC(=S)c1ccc(C)c(-c2cc(C)no2)c1C
> 400 | O=c1[nH]cnc2ccc(S(=O)(=O)Cl)cc12
131 to 132 | CC(C)(C)OC(=O)N1CCC2(CC1)SCc1ccccc12
110 to 111 | COC(=O)[C@@H](CCCc1ccc(OCc2nc(-c3ccco3)oc2C)c(OC)c1)OC(N)=O
> 240 | Cc1c(C=O)c2cc(Cl)ccc2n1-c1ccc(O)cc1
110 to 111 | Cc1cccc(C(N)=NO)c1C
90 to 92 | CC(=O)SCC(Cc1ccccc1)C(=O)Nc1cccc(C(=O)OCCOc2ccccc2)c1 (stereo not drawn)
200 | O=C1CCC(C(=O)c2ccc(C3CCCCC3)cc2)N1 (stereo not drawn)
152 to 153 | Cc1oc(-c2ccco2)nc1COc1ccc(CCCC2OC(=O)NC2=O)cc1O (stereo not drawn)
161 to 162 | COc1cc(CCCC2SC(=O)NC2=O)ccc1OCc1csc(/C=C/c2ccccc2)n1 (stereo not drawn)
140 to 146 | Cc1ccc(NC(=O)c2ccc([N+](=O)[O-])cc2)cc1

Further lines, the compound ahead of its results:

Structure (SMILES) | melting point [°C]
O=S(=O)(Oc1ccc2ccc(OS(=O)(=O)C(F)(F)F)cc2c1)C(F)(F)F | 60 to 62
CCCn1c(=O)c2[nH]c(C3CCC(=O)C3)nc2n(CCC)c1=O (stereo not drawn) | 147 to 148
COC(=O)c1ccc(-c2ccc(C(OC)OC)cc2)cc1 | 76 to 77
CCCCCCCCCCCCCCOc1ccc(CC(=O)O)cc1 | 86 to 87
CCCc1cc(-c2noc3cc(O)ccc23)c(CC)cc1O | 125 to 127
COc1cc2[nH]c(=O)c(=O)n(C)c2cc1OC | 308
CCCCCCN1C(=O)C(=CC(=O)O)SC1=Nc1cccc2ccccc12 | 144 to 145
CCN(C)c1nc2cccc(C(=O)OC)c2n1Cc1ccc(-c2ccccc2C#N)cc1 | 66 to 69
O=Cc1cn(CCCCl)c2ccc(Cl)cc12 | 107 to 108
C[C@H](N)c1ccc(O)cc1 | 120
COc1c(C)cc(-c2nn(C(C)c3oc4ccccc4c(=O)c3-c3cccc(F)c3)c3ncnc(N)c23)cc1C (stereo not drawn) | 234 to 236
O=C(NCc1ccc(Cl)cc1)c1cnc2c(C(F)(F)F)cc(CCCO)cc2c1O | 249 to 250
COC(=O)c1ccc2c(=O)n(CC(C)C)c(CNC(=O)OC(C)(C)C)c(-c3ccccc3F)c2c1 | 180 to 181
COC(=O)c1cc(Cl)cc2c1OCC(=O)N2 | 239 to 241
CC1CN(c2n[nH]c(-c3ccc(Cl)cc3)c2-c2ccncn2)CCN1C (stereo not drawn) | 212 to 214
NCc1ccccc1C1CCN(c2c(F)c(N)c3c(=O)c(C(=O)O)cn(C4CC4)c3c2F)C1 (stereo not drawn) | 164 to 165

Structure (SMILES) | melting point [°C]
CCOC(=O)c1cc(=O)c(Sc2ccccc2)co1 | 79 to 81
NC1=CC=C2C=c3c(cnn3-c3ccccc3)=C2C1=O | 200 to 202
COc1ccc(C2=CCCc3cc(OC)ccc32)cc1 | 100 to 102
COc1cc(-c2ccccc2Cl)c(Cl)cc1C(=O)N1Cc2ccc(C(=O)O)n2Cc2ccccc21 | 209 to 211
O=c1cc(-c2ccc(Br)cc2)oc2ccccc12 | 177 to 179
C=CCC(F)(F)C(O)C(CC(C)C)NC(=O)c1ccccc1 (stereo not drawn) | 110
Oc1ccc2c(c1)CCCC(c1ccccc1)=C2c1ccc(OCCCCCCCl)cc1 | 193
CC(C)(C)OC(=O)CN(C(=O)CNC(=O)Nc1ccccc1)c1ccccc1C(=O)c1ccccc1 | 166 to 167
CC(C)(C)c1ccc(C(O)(c2ccc(Cl)cc2)c2ncc[nH]2)cc1 (stereo not drawn) | 95 to 110
Cc1ccc(S(=O)(=O)OC[C@H]2COCCO2)cc1 | 53 to 54
CCCCCCCCNC(=O)n1nc(Oc2ncc(C(F)(F)F)cc2Cl)c(Cl)c1C | 61 to 62
N#Cc1cc2c(cc1F)OCC21C(=O)N(Cc2ccccn2)c2ccccc21 (stereo not drawn) | 108 to 109
CCCCCCCCC#CCC#CCC#CCSCC(=O)NCCO | 77
Cc1ccc(CNC(=O)c2nc(N3CCOCC3)n(C)c(=O)c2O)cc1F | 166 to 167
COc1ccc(-c2cc(=Nc3c(C)cc(C)cc3C)n(C)c3nncn23)cc1OC | 125 to 130
